Assays:
[1] = Cytotoxicity in MT-4 cells (MTS); format: cell-based; conditions: human
Protocol: MT-4 cells was added to 96-well microtiter plates in a volume of 50 μl (1×10^5 cells/mL). The cell medium contains the test compounds with the concentrations ranging 0.01 μM-31 μM. The cells were incubated at 37° C. with 5% CO2. At assay termination (6 days), 20-25 μL of MTS reagent is added per well and the microtiter plates are then incubated for 4-6 hrs at 37° C. with 5% CO2. The plate was read spectrophotometrically to assess cell viability. The cytotoxicity was calculated based on the cell viability in comparison with the control.

[2] = Cytotoxicity in HepG2 cells (MTT); format: cell-based; conditions: human
Protocol: HepG2 cells were seeded on 96-well plates at a density of 1×10^4 cells/well in 100 μl DMEM supplemented with 10% FBS, 100 U/ml penicillin/streptomycin and 2 mM L-glutamine. After 20 hours of incubation at 37° C. with 5% CO2, the medium was removed and replaced with fresh medium containing test compounds with the concentrations ranging 4.7-300 μM. The cells were incubated for 24 hours at 37° C. with 5% CO2. The medium was removed and replaced with 100 μl/well MTT (Sigma) in HBSS (0.5 mg/ml). After the incubation for 2 hours on gentle shake at 37° C., 100 μl/well of MTT lysis buffer was added to the wells and plates were covered and left over night to dissolve formazan crystals. Absorbance was measured at 570-630 nm in ELISA reader. The cytotoxicity was calculated based on the cell viability in comparison with the control.

[3] = test system: HIV-1IIIB; assay: Anti-HIV activity in MT-4 cells (cytopathic effect reduction); format: cell-based; conditions: Human immunodeficiency virus 1, MT4, 144 h, 6 days post-infection
Protocol: MT-4 cells were used for analyzing compounds of the invention for their HIV inhibitory activities. On the day preceding the assay, the cells were split 1:2 to assure they were in an exponential growth phase at the time of infection. Total cell number and percent viability determinations were performed using a hemacytometer and trypan blue exclusion. Cell viability must be greater than 95% for the cells to be utilized in the assay. The cells were re-suspended at 1×10^5 cells/mL in tissue culture medium and added to control or drug-containing 96-well microtiter plates in a volume of 50 μL. The viruses used for this assay were HIV-1IIIB. For each assay, a pre-titered aliquot of virus was removed from the freezer (−80° C.) and allowed to thaw slowly to room temperature in a biological safety cabinet. The virus was re-suspended and diluted into tissue culture medium such that the amount of virus added to each well in a volume of 50 μL was the amount determined to give between 85 to 95% cell killing at 6 days post-infection. The multiplicity of infection of these assays was approximately 0.01 and the volume added to the well of the microtiter plates was 50 μL. At assay termination (6 days post-infection), 20-25 μL of MTS reagent 3-(4,5-dimethylthiazol-2-yl)-5-(3-carboxymethoxyphenyl)-2-(4-sulfophenyl)-2H-tetrazolium (MTS; CellTiter 96 Reagent, Promega) was added per well and the microtiter plates were incubated for 4-6 hrs at 37° C., 5% CO2. Adhesive plate sealers were used in place of the lids, the sealed plate is inverted several times to mix the soluble formazan product. The plate was read spectrophotometrically at 490/650 nm with plate reader. Anti-HIV activity was calculated based on the Cytopathic Effect Reduction (%).

[4] = test system: HBV; assay: Anti-HBV activity in HepG2.2.15 cells (HBV DNA, TaqMan PCR); format: cell-based; conditions: Hepatitis B virus, 144 h, 6 days, HBV DNA in supernatant, read-out: Anti-HBV activity IC50 (HepG 2215)
Protocol: Human hepatoma cells with HBV (HepG2.2.15 cells) were used for the analyzing compounds of the invention for their HBV inhibitory activities. HepG2.2.15 cells were plated in 96-well microtiter plates. Only the interior wells were utilized to reduce “edge effects” observed during cell culture; the exterior wells were filled with complete medium to help minimize sample evaporation. After 16-24 hours the confluent monolayer of HepG2.2.15 cells were washed and the medium was replaced with complete medium containing various concentrations of a test compound in triplicate (compounds tested at 6 concentrations). Lamivudine was used as the positive control, while media alone was added to cells as a negative control. Three days later the culture medium was replaced with fresh medium containing the appropriately diluted drug. Six days following the initial administration of the test compound, the cell culture supernatant was collected, treated with pronase and then used in a real-time quantitative TaqMan PCR assay. The PCR-amplified HBV DNA was detected in real-time by monitoring increases in fluorescence signals that result from the exonucleolytic degradation of a quenched fluorescent probe molecule that hybridized to the amplified HBV DNA. For each PCR amplification, a standard curve was simultaneously generated using dilutions of purified HBV DNA. Anti-HBV activity was calculated from the reduction in HBV DNA levels. CellTiter-96 kit (Promega) is employed to measure cell viability in the same assay to confirm that the inhibition was not due to cytotoxicity in HepG 2 cells.

[5] = test system: mutants resistant to lamivudine; conditions: cited from earlier work
[6] = molecular target: rtN236T in HBV polymerase (Hepatitis B virus genotype D subtype ayw, UniProt P03156, N571T); conditions: cited from earlier work
Sequence of rtN236T in HBV polymerase (P03156 whole entry N571T): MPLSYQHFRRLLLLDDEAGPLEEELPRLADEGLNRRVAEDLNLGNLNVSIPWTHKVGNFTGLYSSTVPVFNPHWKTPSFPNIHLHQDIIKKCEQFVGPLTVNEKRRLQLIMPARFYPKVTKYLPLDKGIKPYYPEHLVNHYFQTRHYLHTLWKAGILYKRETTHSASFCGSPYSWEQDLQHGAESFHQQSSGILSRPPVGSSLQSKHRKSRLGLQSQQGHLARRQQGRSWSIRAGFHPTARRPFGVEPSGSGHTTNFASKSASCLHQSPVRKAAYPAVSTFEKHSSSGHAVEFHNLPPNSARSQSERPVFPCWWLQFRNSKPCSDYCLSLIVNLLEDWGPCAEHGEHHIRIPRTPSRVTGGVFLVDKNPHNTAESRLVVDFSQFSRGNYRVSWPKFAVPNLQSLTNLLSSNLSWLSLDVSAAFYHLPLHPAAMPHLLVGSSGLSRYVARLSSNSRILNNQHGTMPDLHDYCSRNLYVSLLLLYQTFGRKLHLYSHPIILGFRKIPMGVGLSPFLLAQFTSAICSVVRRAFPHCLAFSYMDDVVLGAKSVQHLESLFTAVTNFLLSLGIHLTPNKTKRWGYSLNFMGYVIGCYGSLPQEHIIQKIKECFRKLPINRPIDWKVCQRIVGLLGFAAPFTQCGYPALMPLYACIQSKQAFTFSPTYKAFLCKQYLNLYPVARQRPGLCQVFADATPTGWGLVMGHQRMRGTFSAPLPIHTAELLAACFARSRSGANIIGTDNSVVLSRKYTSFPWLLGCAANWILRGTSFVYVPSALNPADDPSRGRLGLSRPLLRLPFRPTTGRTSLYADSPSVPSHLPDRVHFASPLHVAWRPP

[7] = molecular target: mutation rtA181V (Hepatitis B virus genotype D subtype ayw, UniProt P03156, A516V); conditions: cited from earlier work
Sequence of mutation rtA181V (P03156 whole entry A516V): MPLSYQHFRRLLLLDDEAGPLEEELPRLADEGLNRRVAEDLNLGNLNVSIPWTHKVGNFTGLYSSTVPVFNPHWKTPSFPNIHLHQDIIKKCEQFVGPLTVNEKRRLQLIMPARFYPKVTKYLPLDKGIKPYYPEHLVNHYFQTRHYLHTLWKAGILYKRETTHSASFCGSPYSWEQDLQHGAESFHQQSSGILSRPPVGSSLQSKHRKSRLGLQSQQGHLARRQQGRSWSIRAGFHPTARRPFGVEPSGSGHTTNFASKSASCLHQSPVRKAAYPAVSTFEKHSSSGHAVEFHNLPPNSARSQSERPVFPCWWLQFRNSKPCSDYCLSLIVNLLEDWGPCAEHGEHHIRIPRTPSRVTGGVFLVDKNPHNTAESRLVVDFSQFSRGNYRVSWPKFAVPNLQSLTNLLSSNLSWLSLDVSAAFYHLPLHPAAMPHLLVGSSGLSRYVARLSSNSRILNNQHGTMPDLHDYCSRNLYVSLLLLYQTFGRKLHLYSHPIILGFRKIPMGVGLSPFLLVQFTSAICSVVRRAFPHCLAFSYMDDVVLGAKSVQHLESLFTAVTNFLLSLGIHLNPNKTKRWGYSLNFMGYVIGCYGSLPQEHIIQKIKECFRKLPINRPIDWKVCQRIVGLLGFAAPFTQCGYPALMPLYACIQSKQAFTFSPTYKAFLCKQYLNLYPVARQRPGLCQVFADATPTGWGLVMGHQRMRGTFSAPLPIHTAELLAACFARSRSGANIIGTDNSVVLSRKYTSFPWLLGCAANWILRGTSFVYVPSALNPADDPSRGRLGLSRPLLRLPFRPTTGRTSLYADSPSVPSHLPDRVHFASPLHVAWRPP

IC50 [3] [µM]	Structure (SMILES)	CC50 at 6 days [1] [µM]	CC50 at 24 h [2] [µM]	IC50 [4] [µM]	cross-resistance of lamivudine-resistant mutants [5]	loss of susceptibility [6]	activity loss [7]
> 32	C=C1C[C@@H](n2cnc3c(=O)[nH]c(N)nc32)O[C@H]1CO [Compound 75, 9-(2,3-dideoxyl-3-methylidene-β-L-pentofuranosyl)guanine]	> 32					
> 32	C=C1[C@H](CO)O[C@H](n2ccc(N)nc2=O)[C@H]1F [Compound 37, 1-[2-deoxy-2-(S)-fluoro-3-deoxy-3-methylidene-β-L-pentofuranosyl]cytosine]	> 32	> 300				
	C=C1C[C@@H](n2cc(F)c(N)nc2=O)O[C@H]1CO [Compound 66, 1-(2,3-dideoxyl-3-methylidene-β-L-pentofuranosyl)-5-fluorocytosine]		> 300	< 1			
	Cc1cn([C@@H]2C[C@@H](O)[C@H](CO)O2)c(=O)[nH]c1=O [telbivudine]				cross-resistance		
	C=C1C[C@@H](n2cnc3c(N)ncnc32)O[C@H]1CO [Compound 71, 9-(2,3-dideoxyl-3-methylidene-β-L-pentofuranosyl)adenine]		> 300	< 1			
> 32	C=C1[C@H](CO)O[C@H](n2ccc(N)nc2=O)[C@@H]1F [Compound 47, 1-[2-deoxy-2-(R)-fluoro-3-deoxy-3-methylidene-β-L-pentofuranosyl]cytosine]	> 32	> 300				
> 32	C=C1[C@H](CO)O[C@H](n2ccc(N)nc2=O)[C@@H]1O [Compound 28, 1-(3-deoxy-3-methylidene-β-L-arabinopentofuranosyl)cytosine]	> 32	> 300				
	Nc1ncnc2c1ncn2CCOCP(=O)(O)O [adefovir]					about 10 fold	about 33 fold
	C=C1[C@H](CO)[C@@H](O)C[C@@H]1n1cnc2c(=O)[nH]c(N)nc21 [entecavir]				cross-resistance		
	C=C1[C@H](CO)O[C@H](n2ccc(N)nc2=O)[C@H]1C [Compound 57, 4-Amino-1-[(2S,3S,5R)-5-(hydroxymethyl)-3-methyl-4-methylenetetrahydrofuran-2-yl]pyrimidin-2(1H)-one]		> 300				
> 32	C=C1[C@H](CO)O[C@H](n2ccc(N)nc2=O)[C@H]1O [Compound 17, 1-(3-deoxy-3-methylidene-β-L-pentoribofuranosyl)cytosine]	> 32	> 300				

Structure (SMILES)	IC50 [3] [µM]	CC50 at 6 days [1] [µM]	CC50 at 24 h [2] [µM]	IC50 [4] [µM]	cross-resistance of lamivudine-resistant mutants [5]	loss of susceptibility [6]	activity loss [7]
C=C1C[C@@H](n2ccc(N)nc2=O)O[C@H]1CO [Compound 10, 1-(2,3-dideoxyl-3-methylidene-β-L-pentofuranosyl)cytosine]	1 to 32	> 32	> 300	< 1			
C=C1C[C@@H](n2ccc(=O)[nH]c2=O)O[C@H]1CO [Compound 8, 1-(2,3-dideoxyl-3-methylidene-β-L-pentofuranosyl)uracil]	> 32	> 32	> 32	> 32			
C=C1C[C@@H](n2cc(C)c(=O)[nH]c2=O)O[C@H]1CO [Compound 26, 1-(2,3-dideoxy-3-methylidene-β-L-pentofuranosyl)thymine]	> 32	> 32	> 300	< 1			
